# Data reported in ChEMBL document CHEMBL1159176, “Regioselective synthesis of 3-aryl substituted pyrrolidines via palladium catalyzed arylation: pharmacological evaluation for central dopaminergic and serotonergic activity” (Bioorg Med Chem Lett, 1997).
# Assays:
# D(3) dopamine receptor [1] = target: T1, D(3) dopamine receptor (Rattus norvegicus, UniProt P19020); assay: Binding affinity against [3H]spiperone binding to Dopamine receptor D3 expressed in CHO-K1 cells; assay type: cell-based
# Rattus norvegicus [2] = assay: Accumulation of 5-Hydroxytryptophan in striatal region in rat after injecting drug compound 65 min and NSD 1015 at a dose of 100 mg/kg administered subcutaneously, 30 min before death, tested in vivo; assay type: functional; details: route subcutaneous
# Rattus norvegicus [3] = assay: Accumulation of Dihydroxyphenylalanine in cortical brain region in rat after injecting drug compound 65 min and NSD 1015 at a dose of 100 mg/kg administered subcutaneously, 30 min before death, tested in vivo; assay type: functional; details: route subcutaneous
# Rattus norvegicus [4] = assay: Accumulation of 5-Hydroxytryptophan in limbic region in rat after injecting drug compound 65 min and NSD 1015 at a dose of 100 mg/kg administered subcutaneously, 30 min before death, tested in vivo; assay type: functional, Limbic system; details: route subcutaneous
# D(2) dopamine receptor [5] = target: T2, D(2) dopamine receptor (Rattus norvegicus, UniProt P61169); assay: Binding affinity against [3H]U-86170 binding to Dopamine receptor D2 expressed in CHO-K1 cells; assay type: cell-based
# Rattus norvegicus [6] = assay: Accumulation of 5-Hydroxytryptophan in cortical brain region in rat after injecting drug compound 65 min and NSD 1015 at a dose of 100 mg/kg administered subcutaneously, 30 min before death, tested in vivo; assay type: functional; details: route subcutaneous
# Rattus norvegicus [7] = assay: Accumulation of Dihydroxyphenylalanine in striatal region in rat after injecting drug compound 65 min and NSD 1015 at a dose of 100 mg/kg administered subcutaneously, 30 min before death, tested in vivo; assay type: functional; details: route subcutaneous
# Rattus norvegicus [8] = assay: Locomotor activity, measured for 30 min after injection of drug, administered subcutaneously at 100 umol/kg; assay type: functional
# [9] = target: T3, Serotonin 2 (5-HT2) receptor (Rattus norvegicus, UniProt P30994+P08909+P14842); assay: Binding affinity against [3H]ketanserin binding to 5-hydroxytryptamine 2 receptor expressed in CHO-K1 cells; assay type: cell-based
# [10] = target: T4, 5-hydroxytryptamine receptor 1A (Rattus norvegicus, UniProt P19327); assay: Binding affinity against [3H]8-OH-DPAT binding to 5-hydroxytryptamine 1A receptor expressed in CHO-K1 cells; assay type: cell-based
# T4 sequence (P19327 whole entry): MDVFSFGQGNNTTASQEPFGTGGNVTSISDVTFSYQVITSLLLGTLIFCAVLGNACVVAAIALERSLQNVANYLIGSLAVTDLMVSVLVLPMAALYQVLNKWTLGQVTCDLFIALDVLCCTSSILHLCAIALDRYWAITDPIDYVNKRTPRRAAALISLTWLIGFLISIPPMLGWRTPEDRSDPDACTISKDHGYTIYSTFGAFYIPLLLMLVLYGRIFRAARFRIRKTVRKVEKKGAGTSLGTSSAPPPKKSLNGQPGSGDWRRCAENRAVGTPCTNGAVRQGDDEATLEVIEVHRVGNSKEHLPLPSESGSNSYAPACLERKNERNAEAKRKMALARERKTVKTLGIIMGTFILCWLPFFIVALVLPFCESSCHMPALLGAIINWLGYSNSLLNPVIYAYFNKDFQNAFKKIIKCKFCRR
# Rattus norvegicus [11] = assay: Accumulation of Dihydroxyphenylalanine in limbic region in rat after injecting drug compound 65 min and NSD 1015 at a dose of 100 mg/kg administered subcutaneously, 30 min before death, tested in vivo; assay type: functional, Limbic system; details: route subcutaneous
# D(2) dopamine receptor [12] = target: T2, D(2) dopamine receptor; assay: Inhibitory concentration against [3H]U-86170 binding to Dopamine receptor D2 expressed in CHO-K1 cells; assay type: cell-based
# [13] = target: T3, Serotonin 2 (5-HT2) receptor; assay: Inhibitory concentration against [3H]ketanserin binding to 5-hydroxytryptamine 2 receptor expressed in CHO-K1 cells; assay type: cell-based
# D(3) dopamine receptor [14] = target: T1, D(3) dopamine receptor; assay: Inhibitory concentration against [3H]spiperone binding to Dopamine receptor D3 expressed in CHO-K1 cells; assay type: cell-based
# [15] = target: T4, 5-hydroxytryptamine receptor 1A; assay: Inhibitory concentration against [3H]8-OH-DPAT binding to 5-hydroxytryptamine 1A receptor expressed in CHO-K1 cells; assay type: cell-based
# Rattus norvegicus [16] = assay: Accumulation of Dihydroxyphenylalanine in limbic region in rat after injecting drug compound 65 min and NSD 1015 at a dose of 0.07 mg/kg administered subcutaneously, 30 min before death, tested in vivo; assay type: functional, Limbic system; details: route subcutaneous
# Rattus norvegicus [17] = assay: Accumulation of Dihydroxyphenylalanine in striatal region in rat after injecting drug compound 65 min and NSD 1015 at a dose of 0.07 mg/kg administered subcutaneously, 30 min before death, tested in vivo; assay type: functional; details: route subcutaneous
# T2 sequence (P61169 whole entry): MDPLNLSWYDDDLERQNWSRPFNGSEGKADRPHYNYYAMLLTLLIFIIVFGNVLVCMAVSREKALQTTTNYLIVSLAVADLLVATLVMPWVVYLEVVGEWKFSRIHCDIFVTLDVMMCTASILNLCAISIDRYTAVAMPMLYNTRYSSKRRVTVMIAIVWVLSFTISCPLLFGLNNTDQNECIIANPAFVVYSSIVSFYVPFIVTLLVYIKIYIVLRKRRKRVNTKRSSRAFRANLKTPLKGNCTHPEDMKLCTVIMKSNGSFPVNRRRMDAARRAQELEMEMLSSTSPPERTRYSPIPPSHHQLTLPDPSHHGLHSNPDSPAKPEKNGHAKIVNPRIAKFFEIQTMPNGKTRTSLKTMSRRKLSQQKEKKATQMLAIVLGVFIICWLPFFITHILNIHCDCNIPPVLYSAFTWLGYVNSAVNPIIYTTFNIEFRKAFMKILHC
# T1 sequence (P19020 whole entry): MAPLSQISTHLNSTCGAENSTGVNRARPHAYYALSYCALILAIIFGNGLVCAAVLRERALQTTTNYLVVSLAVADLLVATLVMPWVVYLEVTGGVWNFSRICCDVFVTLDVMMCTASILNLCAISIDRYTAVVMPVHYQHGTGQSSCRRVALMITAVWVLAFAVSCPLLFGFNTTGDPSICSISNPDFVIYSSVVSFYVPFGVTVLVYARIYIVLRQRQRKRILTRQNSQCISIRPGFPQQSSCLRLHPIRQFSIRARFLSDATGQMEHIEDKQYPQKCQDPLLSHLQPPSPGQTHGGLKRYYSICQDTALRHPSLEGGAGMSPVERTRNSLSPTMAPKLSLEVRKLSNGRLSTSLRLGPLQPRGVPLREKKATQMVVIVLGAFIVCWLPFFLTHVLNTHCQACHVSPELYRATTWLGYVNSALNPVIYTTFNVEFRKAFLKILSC
compound,measurement,setting,value
CCCN1CCC(c2cccc(C(F)(F)F)c2)C1 (configuration not stated),Ki,D(3) dopamine receptor [1],35 nM
same,Control,Rattus norvegicus [2],78%
same,Control,Rattus norvegicus [3],131%
same,Control,Rattus norvegicus [4],97%
same,Ki,D(2) dopamine receptor [5],151 nM
same,Control,Rattus norvegicus [6],87%
same,Control,Rattus norvegicus [7],297%
same,Control,Rattus norvegicus [8],89%
same,Ki,[9],569 nM
same,Ki,[10],351 nM
same,Control,Rattus norvegicus [11],205%
CCCN1CCC(c2cccc(S(C)(=O)=O)c2)C1 (configuration not stated),Control,Rattus norvegicus [2],78%
same,Control,Rattus norvegicus [3],143%
same,Control,Rattus norvegicus [4],97%
same,Control,Rattus norvegicus [6],92%
same,Control,Rattus norvegicus [7],256%
same,IC50,D(2) dopamine receptor [12],> 1000 nM
same,IC50,[13],> 1000 nM
same,Control,Rattus norvegicus [8],126%
same,Ki,[10],807 nM
same,Control,Rattus norvegicus [11],207%
same,IC50,D(3) dopamine receptor [14],> 1000 nM
CCCN1CCC(c2cccnc2)C1 (configuration not stated),Control,Rattus norvegicus [2],104%
same,Control,Rattus norvegicus [3],132%
same,Control,Rattus norvegicus [4],90%
same,Control,Rattus norvegicus [6],94%
same,Control,Rattus norvegicus [7],108%
same,IC50,D(2) dopamine receptor [12],> 1000 nM
same,IC50,[13],> 1000 nM
same,Control,Rattus norvegicus [8],15%
same,Control,Rattus norvegicus [11],111%
same,IC50,D(3) dopamine receptor [14],> 1000 nM
same,IC50,[15],> 1000 nM
CCCN1CCC[C@@H](c2cccc(S(C)(=O)=O)c2)C1,Control,Rattus norvegicus [2],85%
same,Control,Rattus norvegicus [3],165%
same,Control,Rattus norvegicus [4],83%
same,Control,Rattus norvegicus [6],78%
same,Control,Rattus norvegicus [7],317%
same,Control,Rattus norvegicus [8],135%
same,Control,Rattus norvegicus [11],228%
c1ccc2c(C3CCNC3)cccc2c1 (configuration not stated),Control,Rattus norvegicus [2],93%
same,Control,Rattus norvegicus [3],104%
same,Control,Rattus norvegicus [4],94%
same,Ki,D(2) dopamine receptor [5],264 nM
same,Control,Rattus norvegicus [6],86%
same,Control,Rattus norvegicus [7],82%
same,Control,Rattus norvegicus [8],129%
same,Ki,[9],40 nM
same,Ki,[10],95 nM
same,Control,Rattus norvegicus [11],92%
same,IC50,D(3) dopamine receptor [14],> 1000 nM
CS(=O)(=O)c1cccc(C2CCNC2)c1 (configuration not stated),Control,Rattus norvegicus [2],92%
same,Control,Rattus norvegicus [3],104%
same,Control,Rattus norvegicus [4],96%
same,Control,Rattus norvegicus [6],98%
same,Control,Rattus norvegicus [7],91%
same,IC50,D(2) dopamine receptor [12],> 1000 nM
same,IC50,[13],> 1000 nM
same,Control,Rattus norvegicus [8],71%
same,Control,Rattus norvegicus [11],89%
same,IC50,D(3) dopamine receptor [14],> 1000 nM
same,IC50,[15],> 1000 nM
FC(F)(F)c1cccc(C2CCNC2)c1 (configuration not stated),Ki,D(3) dopamine receptor [1],633 nM
same,Control,Rattus norvegicus [2],82%
same,Control,Rattus norvegicus [3],72%
same,Control,Rattus norvegicus [4],70%
same,Ki,D(2) dopamine receptor [5],100 nM
same,Control,Rattus norvegicus [6],70%
same,Control,Rattus norvegicus [7],163%
same,Control,Rattus norvegicus [8],74%
same,Ki,[9],227 nM
same,Ki,[10],174 nM
same,Control,Rattus norvegicus [11],113%
CCCN1CCC(c2cccc(OS(=O)(=O)C(F)(F)F)c2)C1 (configuration not stated),Ki,D(3) dopamine receptor [1],62 nM
same,Control,Rattus norvegicus [2],86%
same,Control,Rattus norvegicus [3],114%
same,Control,Rattus norvegicus [4],85%
same,Ki,D(2) dopamine receptor [5],162 nM
same,Control,Rattus norvegicus [6],98%
same,Control,Rattus norvegicus [7],290%
same,IC50,[13],> 1000 nM
same,Control,Rattus norvegicus [8],93%
same,Ki,[10],652 nM
same,Control,Rattus norvegicus [11],211%
CCCN1CCC(C2CCCCC2)C1 (configuration not stated),Control,Rattus norvegicus [2],103%
same,Control,Rattus norvegicus [3],119%
same,Control,Rattus norvegicus [4],102%
same,Control,Rattus norvegicus [6],88%
same,Control,Rattus norvegicus [7],95%
same,IC50,D(2) dopamine receptor [12],> 1000 nM
same,IC50,[13],> 1000 nM
same,Control,Rattus norvegicus [8],87%
same,Control,Rattus norvegicus [11],116%
same,IC50,D(3) dopamine receptor [14],> 1000 nM
same,IC50,[15],> 1000 nM
CN1CCC(C2=CN=CCC2)C1 (configuration not stated),Control,Rattus norvegicus [2],112%
same,Control,Rattus norvegicus [3],126%
same,Control,Rattus norvegicus [4],72%
same,Control,Rattus norvegicus [6],79%
same,Control,Rattus norvegicus [7],112%
same,IC50,D(2) dopamine receptor [12],> 1000 nM
same,IC50,[13],> 1000 nM
same,Control,Rattus norvegicus [8],47%
same,Control,Rattus norvegicus [11],112%
same,IC50,D(3) dopamine receptor [14],> 1000 nM
same,IC50,[15],> 1000 nM
CCCN1CCC(c2cccc(O)c2)C1 (configuration not stated),Ki,D(3) dopamine receptor [1],52 nM
same,Control,Rattus norvegicus [2],68%
same,Control,Rattus norvegicus [3],88%
same,Control,Rattus norvegicus [4],74%
same,Ki,D(2) dopamine receptor [5],68 nM
same,Control,Rattus norvegicus [6],79%
same,Control,Rattus norvegicus [7],153%
same,IC50,[13],> 1000 nM
same,Control,Rattus norvegicus [8],20%
same,Ki,[10],201 nM
same,Control,Rattus norvegicus [11],113%
CCCN1CCC(c2cccc3ccccc23)C1 (configuration not stated),Control,Rattus norvegicus [2],54%
same,Control,Rattus norvegicus [3],115%
same,Control,Rattus norvegicus [4],53%
same,Ki,D(2) dopamine receptor [5],71 nM
same,Control,Rattus norvegicus [6],57%
same,Control,Rattus norvegicus [7],177%
same,Control,Rattus norvegicus [8],80%
same,Ki,[9],113 nM
same,Ki,[10],73 nM
same,Control,Rattus norvegicus [11],118%
same,IC50,D(3) dopamine receptor [14],> 1000 nM
CCCN1CCC(c2ccccc2)C1 (configuration not stated),Ki,D(3) dopamine receptor [1],> 2500 nM
same,Control,Rattus norvegicus [2],81%
same,Control,Rattus norvegicus [3],130%
same,Control,Rattus norvegicus [4],92%
same,Ki,D(2) dopamine receptor [5],625 nM
same,Control,Rattus norvegicus [6],83%
same,Control,Rattus norvegicus [7],66%
same,IC50,[13],> 1000 nM
same,Control,Rattus norvegicus [8],115%
same,Ki,[10],453 nM
same,Control,Rattus norvegicus [11],96%
O=C(CCCN1CCC(O)(c2ccc(Cl)cc2)CC1)c1ccc(F)cc1 [HALOPERIDOL],Control,Rattus norvegicus [8],2%
same,Control,Rattus norvegicus [16],241%
same,Control,Rattus norvegicus [17],310%
